Assay results from patent EP4578449A1, “PHARMACEUTICAL COMBINATION OF FAK INHIBITOR AND MICROTUBULE INHIBITOR AND USE THEREOF” (Inxmed (Nanjing) Co., Ltd., priority 2022, dated 2024).

Tests used:
[1] = tested on: human ovarian epithelial carcinoma TOV-21G cells; test: Eribulin and IN10018: microscopy and CRT/Annexin-V/PI flow cytometry; format: cell-based; conditions: 48 hours, IN10018 10 µM, Eribulin 0.045 µM, alone or combined
Method: (§1) ID8 cells and TOV-21G cells were cultured in monolayer in vitro. ID8 cells were cultured in DMEM medium with 10% fetal bovine serum. TOV-21G cells were cultured in RPMI-1640 medium with 10% fetal bovine serum. Both were cultured in a 37 °C, 5% CO2 incubator. Trypsin was used for routine digestion and passage treatment two to three times a week. When the cells were in the exponential growth phase and the adherent confluence reached 80%-90%, the cells were harvested and plated.
(§2) ID8 cells and TOV-21G cells were digested with trypsin and then collected and counted. Based on the counting results, the cells were diluted with the corresponding complete culture medium to a concentration of 50,000 cells per milliliter. Then the cells were plated in 12-well cell culture plates, with 2 ml of cell suspension per well, i.e., 100,000 cells.
(§3) After plating, the cells were cultured in a 37°C and 5% CO2 incubator.
(§4) After 24 hours of plating, test compounds IN10018 and Eribulin were added to different wells, respectively.
(§5) After 48 hours of drug action, the cells were photographed using a microscope, and then trypsinized and collected for flow cytometry staining.
(§6) The cells were washed twice with flow buffer (DPBS + 2% FBS). 0.5 µL of AF647 Anti-Calreticulin Antibody was added to each well, and mixed. The cells were incubated at 4°C in the dark for 20 min. After washing once with flow buffer, 195 µL of Annexin-V-FITC binding solution was added, and the cells were gently mixed well. 5 µL of Annexin-V-FITC antibody was added. After further mixing, 10 µL of PI dye was added and mixed well. The cells were incubated at room temperature in the dark for 15 min. The cells were then subjected to flow cytometry.
(§7) After the assay, the cell positive rate was analyzed by Flowjo (V10) software.

[2] = tested on: mouse ovarian epithelial carcinoma ID8 cells; test: as above; format: cell-based; conditions: 48 hours, IN10018 10 µM, Eribulin 0.045 µM, alone or combined
Method: as §1, §2, §3, §4, §5, §6, §7

colon cancer CT26 cells = test: IN10018 and Docetaxel: microscopy and CRT/Annexin-V/PI flow cytometry; format: cell-based, mouse; conditions: 48 hours, IN10018 5 µM, Docetaxel 0.1 µM, alone or combined
Method: CT26 cells (Institute of Cell Biology, Chinese Academy of Sciences) were cultured with RPMI-1640 (Shanghai Basalmedia, catalog number: L210KJ, batch number: F210916) + 10% FBS (Gibco, catalog number: 10099-141c, batch number: 2158737cp), and passaged twice. When the cells were in good condition, they were placed in a 24-well plate. After 24 hours of cell spreading, four groups were set up. The first group was the control group, in which culture medium was added; the second group was IN10018 at a concentration of 5µM; the third group was Docetaxel (MCE, classification number: HY-B0011, batch number: 111613) with a concentration of 0.1µM; and the fourth group was the combination group of IN10018 (5 µM) and Docetaxel (0.1µM). The drugs were mixed and cultured in a 5 % CO2 incubator at 37°C for 48 hours.
After 48 hours of drug action, the cells were observed and photographed under a microscope. The photos were saved. Then the cells were collected for flow cytometry, and the cells were washed twice with flow buffer (PBS + 2% FBS). 0.5 µl of AF647 anti-calreticulin antibody (abcam, catalog number: ab196159, batch number: CR33676773) was added to each well, and fully mixed. The cells were incubated at 4 °C for 20 minutes in the dark. […] The mixture was incubated at room temperature in the dark for 15 minutes, and then analyzed on a flow cytometer.

[3] = tested on: mouse breast cancer 4T1 cells; test: Eribulin and IN10018: microscopy and CRT/Annexin-V/PI and GRP94 flow cytometry; format: cell-based; conditions: 48 hours, IN10018 5 µM, Eribulin 0.15 µM or 0.45 µM, alone or combined
Method: 4T1 cells were cultured in monolayer in vitro under the following conditions: RPMI-1640 medium with 10% fetal bovine serum, 37 °C, 5% CO2. Trypsin was used for routine digestion and passage treatment two to three times a week. When the cells were in the exponential growth phase and the adherent confluence reached 80%-90%, the cells were harvested and plated.
4T1 cells were digested with trypsin and then collected and counted. Based on the counting results, the cells were diluted with RPMI-1640+10% FBS to a concentration of 50,000 cells per milliliter. Then the cells were plated in 12-well cell culture plates, with 2 ml of cell suspension per well, i.e., 100,000 cells. After plating, the cells were cultured in a 37°C and 5% CO2 incubator.
as §4, §5
The cells were washed twice with flow buffer (DPBS + 2% FBS), and each group of cells was divided into two equal parts. In one part, 0.5 µL of AF647 Anti-Calreticulin Antibody was added to each well, and mixed. The cells were incubated at 4°C in the dark for 20 min. […]
as §7

breast cancer 4T1 cells = test: Subcutaneous allograft tumor model of breast cancer 4T1 cells in BALB/c mice; format: in vivo
Text: Mice: Female BALB/c mice aged 6-8 weeks were purchased from SHANGHAI SLAC LABORATORY ANIMAL CO. LTD. The assay began after the animals were adapted to the assay environment upon arrival. The animals were kept in IVC (independent ventilation system) cages (5 per cage) in an SPF animal room. All cages, padding and drinking water must be sterilized before use. All assay personnel should wear protective clothing and latex gloves when operating in the animal room. Cages, feed and drinking water were replaced twice a week. The feeding environment and lighting conditions were as follows: • Temperature: 20-26 °C • Humidity: 40-70% • Lighting period: 12 hours light, 12 hours no light • Cages: Made of polycarbonate, 300 mm × 180 mm × 150 mm. The padding was corn cobs, which was replaced twice a week. • Food: The assay animals had free access to food (dry pelleted food sterilized by irradiation) throughout the assay period. • Drinking water: Assay animals were free to drink sterile water. • Cage identification: The animal information card for each cage should indicate the number of animals in the cage, gender, strain, receipt date, dosing regimen, assay number, group and start date of the assay. • Animal identification: Assay animals were identified with ear tags.
Breast cancer cell 4T1 (source: Nanjing Cobioer Biotechnology Co., Ltd., catalog number: CBP60352) was maintained and passaged by INXMED (Nanjing) Co., Ltd. The cells were cultured in a monolayer in vitro in RPMI-1640 medium with 10% fetal bovine serum in a 37 °C, 5% CO2 incubator. Trypsin-EDTA was used for routine digestion and passage treatment two to three times a week. When the cells were in the exponential growth phase and the adherent confluence reached 80%-90%, the cells were harvested and plated.
0.1 mL of cell suspension containing 2 x 10^5 cells was subcutaneously inoculated on the right back of each mouse. When the tumor volume reached ~52 mm^3 (10th day after cell inoculation), the mice were randomly divided into groups for drug administration according to the tumor volume. Table 9. Dosing regimen of the test substance in 4T1 mouse transplant tumor model
The formulation and any modifications of this assay protocol had been assessed and approved by the IACUC of ArrayBridge. The use and welfare of assay animals were carried out in accordance with AAALAC regulations. The health status and mortality of animals were monitored daily, with routine checks including observation of tumor growth and the impact of drug treatment on the animals' daily behavior, such as activity, food and water intake (estimated by visual inspection), changes in body weight, physical signs, or any other abnormalities. The number of animal deaths and side effects in each group were recorded based on the number of animals in each group.
If the animal's health condition continued to deteriorate, or if the tumor volume exceeded 3,000 mm^3, or there was a serious disease or pain, euthanasia should be carried out. In the following cases, the veterinarian was notified and euthanasia was performed: obvious weight loss, i.e., weight loss greater than 20%; inability to freely eat and drink; the average tumor volume of the control group reached 2000 mm^3, the assay was terminated.
Tumor diameters were measured three times a week using calipers. The tumor volume was calculated using the formula: V = 0.5 × a × b^2, where a and b represent the long and short diameters of the tumor, respectively.
Based on the tumor volume on the first day after grouping, the tumor growth inhibition rate TGI (%) was calculated according to the following formula: TGI (%) = [1 - (average tumor volume of a treatment group - average tumor volume of the treatment group at the beginning of treatment) / (average tumor volume of the solvent control group - average tumor volume of the solvent control group at the beginning of treatment)] × 100%. […]

[4] = tested on: mouse colon cancer CT26 cells; test: Docetaxel/Eribulin/Paclitaxel and Defactinib: microscopy and CRT/Annexin-V/PI flow cytometry; format: cell-based; conditions: 48 hours, Defactinib 5 µM, Docetaxel 0.3 µM, Eribulin 0.3 µM, Paclitaxel 6 µM, alone or combined with Defactinib
Method: CT26 cells were cultured in monolayer in vitro under the following conditions: RPMI-1640 medium with 10% fetal bovine serum, 37°C, 5% CO2. Trypsin was used for routine digestion and passage treatment two to three times a week. When the cells were in the exponential growth phase and the adherent confluence reached 80%-90%, the cells were harvested and plated.
CT26 cells were digested with trypsin, and then the cells were collected and counted. Based on the counting results, the cells were diluted with the corresponding complete culture medium to a concentration of 50,000 cells per milliliter. Then the cells were plated in 12-well cell culture plates, with 2 ml of cell suspension per well, i.e., 100,000 cells.
as §3
After 24 hours of plating, the test compounds Docetaxel, Eribulin, Paclitaxel and Defactinib were added to different wells, respectively.
as §5
The cells were washed twice with flow buffer (DPBS + 2% FBS). 0.5 µL of AF647 Anti-Calreticulin Antibody was added to each well, and mixed well. The cells were incubated at 4°C in the dark for 20 min. After washing once with flow buffer, 195 µL of Annexin-V-FITC binding solution was added, and the cells were gently mixed well. 5 µL of Annexin-V-FITC antibody was added. After further mixing, 10 µL of PI dye was added and mixed well. The cells were incubated at room temperature in the dark for 15 min. The cells were then subjected to flow cytometry.
as §7

## COc1cc(C(=O)NC2CCN(C)CC2)c(F)cc1Nc1ncc(C(F)(F)F)c(Oc2cccc3c2C(=O)N(C)C3)n1 [IN10018]
[1]
  cell status (cell death / cell viability) under a microscope: better
[2]
  cell status (cell death / cell viability) under a microscope: better
Colon cancer CT26 cells
  cell status under a microscope: good
[3]
  cell status (cell death / cell viability) under a microscope: better

## Cc1c(C=Cc2cc(CNC(C)(CO)C(=O)O)ccc2C(F)(F)F)cccc1-c1ccc2c(c1)OCCO2 (stereo not drawn) [MAX10181]
Breast cancer 4T1 cells; baseline at grouping (10th day after inoculation), mean ± standard error, 6 mice per group
  Tumor volume on day 0: 51.7 ± 13.9 mm^3
Breast cancer 4T1 cells; day 21 after administration, vs control group, DTX 10 mg/kg i.p. BIW, IN10018 25 mg/kg p.o. QD, MAX10181 120 mg/kg p.o. BID
  TGI: -3.7%
Breast cancer 4T1 cells; day 21 after administration, DTX 10 mg/kg i.p. BIW, IN10018 25 mg/kg p.o. QD, MAX10181 120 mg/kg p.o. BID, mean ± standard error
  Tumor volume on day 21: 2205.7 ± 912.7 mm^3
Breast cancer 4T1 cells; entire dosing cycle (21 days), 6 mice per group, deaths following diarrhea, MAX10181 120 mg/kg p.o. BID, DTX 10 mg/kg i.p. BIW
  death of animals: one

## CC(=O)O[C@H]1C(=O)[C@@]2(C)[C@H]([C@H](OC(=O)c3ccccc3)[C@]3(O)C[C@H](OC(=O)[C@H](O)[C@@H](NC(=O)c4ccccc4)c4ccccc4)C(C)=C1C3(C)C)[C@]1(OC(C)=O)CO[C@@H]1C[C@@H]2O [Paclitaxel]
[4]
  cell status (cell death) under a microscope: obvious
